For the assay, the system named is HCV replicon (5-2 Luc replicon-comprising cells). The experiment in a line: HCV replicon assay (luciferase). Format: cell-based, Hepatitis C virus. The settings on record: 5-2 Luc replicon cells, luciferase readout, read-out: Replicon IC50. An excerpt: In one embodiment, the inhibitory activity of the compounds can be confirmed in a replicon assay that assesses the ability of a test compound to block or inhibit HCV replication in replicon cells. One example of a suitable replicon assay is the liver cell-line Huh 7-based replicon assay described in Lohmann et al., 1999, Science 285:110–113. A specific example of this replicon assay which utilizes luciferase translation is provided in the Examples Section. In one embodiment of this assay, the amount of test compound that yields a 50% reduction in translation as compared to a control cell (IC50) may be determined.
The inhibitory activity of certain exemplary compounds of the invention was confirmed using an HCV replicon assay. The HCV replicon can include such features as the HCV 5′ untranslated region including the HCV IRES, the HCV 3′ untranslated region, selected HCV genes encoding HCV polypeptides, selectable markers, and a reporter gene such as luciferase, GFP, etc. In the assay, actively dividing 5-2 Luc replicon-comprising cells (obtained from Ralf Bartenschlager; see Lohmann et al., 1999, Science 285:110–113) were seeded at a density of between about 5,000 and 7,500 cells/well onto 96 well plates (about 90 μl of cells per well) and incubated at 37° C. and 5% CO2 for 24 hours. Then, the test compound (in a volume of about 10 μl) was added to the wells at various concentrations and the cells were incubated for an additional 24 hours before luciferase assay. Briefly, the Bright-Glo reagent was diluted 1:1 with PBS and 100 μl of diluted reagent was added to each well. After 5 min of incubation at room temperature, luciferin emission was quantified with a luminometer. In this assay, the amount of test compound that yielded a 50% reduction in luciferase activity (IC50) was determined.
In TABLE 1, a value of “+” indicates an IC50 of 10 μM or less in the specified assay; a value of “−” indicates an IC50 of greater than 10 μM in the specified assay.
(In general: A replicon is a self-replicating genome or part of one, used to study replication in cells.)

Structures are written as SMILES. Read-outs that look alike come from different tables or passages of the source. A value given as a limit tells only on which side of the number the result lay.

With `O=C(Nc1cccc(-c2cc(-c3c(Cl)cccc3N3CCOCC3)no2)c1)C(Cl)Cl` [Compound 500], the IC50 was less than 10 µM.
In the case of `O=C(Nc1cccc(-c2cc(-c3c(Cl)cccc3N3CCN(C(=O)c4cccnc4)CC3)no2)c1)C(Cl)Cl` [Compound 553], the IC50 was less than 10 µM.
Take `O=C(Nc1cccc(-c2cc(-c3c(Cl)cccc3N3CCN4CCCC4C3)no2)c1)C(Cl)Cl` (stereo not shown) [Compound 651]: the IC50 was less than 10 µM.
Consider `O=C(Nc1cccc(-c2cc(-c3c(Cl)cccc3N3CCN(S(=O)(=O)C(F)(F)F)CC3)no2)c1)C(Cl)Cl` [Compound 567], for which the IC50 is less than 10 µM.
On to `COC(=O)c1ccccc1-c1cc(-c2cccc(NC(=O)C(Cl)Cl)c2)on1` [Compound 115, 2,2-Dichloro-N-[3-[3-(2-carbomethoxy)phenyl-5-isoxazolyl]phenyl]Acetamide], for which the IC50 was less than 10 µM.
In the case of `NC1CCN(c2cccc(Cl)c2-c2cc(-c3cccc(NC(=O)C(Cl)Cl)c3)on2)C1` (stereo not shown) [Compound 504], the IC50 is less than 10 µM.
For the compound `CN1CCN(c2cccc(Cl)c2-c2cc(-c3cccc(NC(=O)C(Cl)Cl)c3)on2)CC1` [Compound 99, 2,2-Dichloro-N-[3-[3-[2-chloro-6-(4-methylpiperazino)phenyl]-5-isoxazolyl]phenyl]Acetamide], where the note is “Hepatitis C virus”, the IC50 was less than 10 µM.
For the compound `CN(C)CCN(C)c1cccc(Cl)c1-c1cc(-c2cccc(NC(=O)C(Cl)Cl)c2)on1` [Compound 131, 2-Dichloro-N-[3-[3-[2-chloro-6-(N,N-dimethylethylene-N′-methylamino)phenyl]-5-isoxazolyl]-phenyl]Acetamide], the IC50 was less than 10 µM.
Regarding `O=C(Nc1cccc(-c2cc(-c3c(Cl)cccc3N3CCN(C(=O)c4cc5ccccc5[nH]4)CC3)no2)c1)C(Cl)Cl` [Compound 555], the concentration for half-maximal inhibition (IC50) is less than 10 µM.
On to `O=C(Nc1cccc(-c2cc(-c3c(N4CCN(c5ccccn5)CC4)cccc3C(F)(F)F)no2)c1)C(Cl)Cl` [Compound 520], for which the IC50 is less than 10 µM.
In the case of `CC(=O)N1CCC(N(C)c2cccc(Cl)c2-c2cc(-c3cccc(NC(=O)C(Cl)Cl)c3)on2)CC1` [Compound 582], the IC50 was less than 10 µM.
Same read-out and setting: in the case of `O=C(Nc1cccc(-c2cc(-c3c(Cl)cccc3N3CCN(c4ccc(Cl)cc4)CC3)no2)c1)C(Cl)Cl` [Compound 619] it was less than 10 µM.
Regarding `O=C(Nc1cccc(-c2cc(-c3c(Cl)cccc3N3CCN(CCN4CCCC4)CC3)no2)c1)C(Cl)Cl` [Compound 652], the IC50 was less than 10 µM.
In the case of `O=C(Nc1cccc(-c2cc(-c3c(Cl)cccc3N3CCN(c4cnccn4)CC3)no2)c1)C(Cl)Cl` [Compound 515], the IC50 was less than 10 µM.
Consider `CCNC(=O)N1CCC(N(C)c2cccc(Cl)c2-c2cc(-c3cccc(NC(=O)C(Cl)Cl)c3)on2)CC1` [Compound 584], for which the IC50 is less than 10 µM.
With `CN(C)C(=O)Oc1cccc(Cl)c1-c1cc(-c2cccc(NC(=O)C(Cl)Cl)c2)on1` [Compound 601], the IC50 was less than 10 µM.
On the same count and under the same terms, in the case of `CCNc1cccc(Cl)c1-c1cc(-c2cccc(NC(=O)C(Cl)Cl)c2)on1` [Compound 507] it was less than 10 µM.
Consider `COc1cccc(C(=O)N2CCN(c3cccc(Cl)c3-c3cc(-c4cccc(NC(=O)C(Cl)Cl)c4)on3)CC2)c1` [Compound 659], for which the IC50 is less than 10 µM.
In the case of `O=C(Nc1cccc(-c2cc(-c3c(Cl)cccc3OCCN3CCOCC3)no2)c1)C(Cl)Cl` [Compound 95, 2,2-Dichloro-N-[3-[3-[2-chloro-6-(N-morpholino-2-ethyleneoxy)phenyl]-5isoxazolyl]-phenyl]Acetamide], the IC50 is less than 10 µM.
On to `O=C(Nc1cccc(-c2cc(-c3c(Cl)cccc3N3CCc4ccccc4C3)no2)c1)C(Cl)Cl` [Compound 636], for which the concentration for half-maximal inhibition (IC50) was less than 10 µM.
As to `COc1cccc(N2CCN(c3cccc(Cl)c3-c3cc(-c4cccc(NC(=O)C(Cl)Cl)c4)on3)CC2)c1` [Compound 524], the IC50 was less than 10 µM.
Same read-out and setting: with `O=C(Nc1cccc(Cl)c1-c1cc(-c2cccc(NC(=O)C(Cl)Cl)c2)on1)c1cccnc1` [Compound 562] the figure was less than 10 µM; with `O=C(Nc1cccc(-c2cc(-c3c(Cl)cccc3N3CCN(C(=O)C(F)(F)F)CC3)no2)c1)C(Cl)Cl` [Compound 566], less than 10 µM; with `CN(C(=O)C(Cl)Cl)c1cccc(-c2cc(-c3c(N)cccc3Cl)no2)c1` [Compound 564], greater than 10 µM.
`O=C(O)c1ccccc1-c1cc(-c2cccc(NC(=O)C(Cl)Cl)c2)on1` [Compound 157, 2,2-Dichloro-N-[3-[3-(2-carboxyphenyl)-5-isoxazolyl]phenyl]Acetamide]: the IC50 (Hepatitis C virus) is greater than 10 µM.
For the compound `O=C(Nc1cccc(-c2cc(-c3c(Cl)cccc3N3CCN(CC(=O)N4CCOCC4)CC3)no2)c1)C(Cl)Cl` [Compound 631], the IC50 is less than 10 µM.
For `CN(C)S(=O)(=O)N1CCN(c2cccc(Cl)c2-c2cc(-c3cccc(NC(=O)C(Cl)Cl)c3)on2)CC1` [Compound 540], the IC50 was less than 10 µM.
For `CCNC(=O)N1CCC(Oc2cccc(Cl)c2-c2cc(-c3cccc(NC(=O)C(Cl)Cl)c3)on2)C1` (stereo not shown) [Compound 597], the IC50 is less than 10 µM.
Same read-out and setting: in the case of `O=C(Nc1cccc(-c2cc(-c3c(Cl)cccc3N3CCN(C(=O)c4ccncc4)CC3)no2)c1)C(Cl)Cl` [Compound 552] it was less than 10 µM.
For the compound `C[N+](C)(C)CCOc1cccc(Cl)c1-c1cc(-c2cccc(NC(=O)C(Cl)Cl)c2)on1` [Compound 598], the IC50 was less than 10 µM.
For `O=C(Nc1cccc(-c2cc(-c3c(Cl)cccc3N3CCN(c4ncccc4C(F)(F)F)CC3)no2)c1)C(Cl)Cl` [Compound 538], the IC50 is less than 10 µM.
For `O=C(Nc1cccc(-c2cc(-c3c(Cl)cccc3N3CCN(c4ccc(C(F)(F)F)cn4)CC3)no2)c1)C(Cl)Cl` [Compound 536], the IC50 is less than 10 µM.
`O=C(Nc1cccc(-c2cc(-c3c(Cl)cccc3N3CCN(C(=O)c4ccc(C(F)(F)F)cc4)CC3)no2)c1)C(Cl)Cl` [Compound 661]: the IC50 is less than 10 µM.
For the compound `O=C(Nc1cccc(-c2cc(-c3c(Cl)cccc3N3CCN(C(=O)Cc4ccccc4)CC3)no2)c1)C(Cl)Cl` [Compound 533], the IC50 was less than 10 µM.
On to `CS(=O)(=O)N1CCCC(Oc2cccc(Cl)c2-c2cc(-c3cccc(NC(=O)C(Cl)Cl)c3)on2)C1` (stereo not shown) [Compound 586], for which the IC50 was less than 10 µM.
The same measure, in the same setting: in the case of `Nc1cccc(Cl)c1-c1cc(-c2cccc(NC(=O)C(Cl)Cl)c2)on1` [Compound 542] it was less than 10 µM; in that of `CC(C)(C)OC(=O)N1CCC(CCOc2cccc(Cl)c2-c2cc(-c3cccc(NC(=O)C(Cl)Cl)c3)on2)CC1` [Compound 639], less than 10 µM; in that of `O=C(Nc1cccc(-c2cc(-c3c(Cl)cccc3N3CCN(Cc4ccc(Cl)cc4)CC3)no2)c1)C(Cl)Cl` [Compound 654], less than 10 µM.
Regarding `O=C(Nc1cccc(-c2noc(-c3c(Cl)cccc3Cl)n2)c1)C(Cl)Cl` [Compound 87, 2,2-Dichloro-N-[3-[5-(2,6-dichlorophenyl)-3-(1,2,4-oxadiazolyl)]phenyl]Acetamide], the IC50 was less than 10 µM.
As for `CS(=O)(=O)N1CCC(Oc2cccc(Cl)c2-c2cc(-c3cccc(NC(=O)C(Cl)Cl)c3)on2)C1` (stereo not shown) [Compound 596], the IC50 was less than 10 µM.
As to `CC(=O)N1CCN(c2cccc(Cl)c2-c2cc(-c3cccc(NC(=O)C(Cl)Cl)c3)on2)CC1` [Compound 617], the IC50 is less than 10 µM.
On the same count and under the same terms, in the case of `O=C(Nc1cccc(-c2cc(-c3c(Cl)cccc3N3CCC(c4ccccc4)CC3)no2)c1)C(Cl)Cl` [Compound 638] it was less than 10 µM; in that of `CN1CCN(c2ccccc2-c2cc(-c3cccc(NC(=O)C(Cl)Cl)c3)on2)CC1` [Compound 611], less than 10 µM.
Turning to `O=C(Nc1cccc(-c2cc(-c3c(Cl)cccc3OCCC3CCN(C(=O)c4ccccn4)CC3)no2)c1)C(Cl)Cl` [Compound 646], the IC50 was less than 10 µM.
On to `O=C(Nc1cccc(-c2cc(-c3c(Cl)cccc3N3CCC(OC(=O)C(Cl)Cl)CC3)no2)c1)C(Cl)Cl` [Compound 527], for which the IC50 is less than 10 µM.
The same measure, in the same setting: with `CN(c1cccc(Cl)c1-c1cc(-c2cccc(NC(=O)C(Cl)Cl)c2)on1)C1CCN(C(=O)OC(C)(C)C)CC1` [Compound 580] the figure was less than 10 µM.
For the compound `O=C(Nc1cccc(-c2cc(-c3c(Cl)cccc3NS(=O)(=O)c3ccc(Cl)cc3)no2)c1)C(Cl)Cl` [Compound 679], the IC50 is less than 10 µM.
For `O=C(Nc1cccc(-c2cc(-c3c(Cl)cccc3N3CCN(C(=O)c4ccccn4)CC3)no2)c1)C(Cl)Cl` [Compound 513], the IC50 is less than 10 µM.
On to `O=C(Nc1cccc(-c2cc(-c3c(Cl)cccc3OCCC3CCNCC3)no2)c1)C(Cl)Cl` [Compound 640], for which the IC50 is less than 10 µM.
Turning to `COP(=O)(O)Oc1cccc(Cl)c1-c1cc(-c2cccc(NC(=O)C(Cl)Cl)c2)on1` [Compound 607], the IC50 was less than 10 µM.
`O=C(Nc1cccc(-c2cc(-c3c(Cl)cccc3N3CCC(O)CC3)no2)c1)C(Cl)Cl` [Compound 528]: the IC50 was less than 10 µM.
Take `CC(=O)Nc1cccc(Cl)c1-c1cc(-c2cccc(NC(=O)C(Cl)Cl)c2)on1` [Compound 560]: the IC50 was less than 10 µM.

As a reminder, the IC50 is the concentration needed to halve the response being measured.

Values taken from patent US7115642B2, “Substituted diphenyl isoxazoles, pyrazoles and oxadiazoles useful for treating HCV infection” (priority 2003, dated 2006).
